Numbers after ± are expanded uncertainties.
Details: Liquid; for speed of sound: Pulse-echo method; for mass density: Vibrating tube method

With CCCCCCCCCCC [undecane] the speed of sound (278 K, 1000 kPa) was 1355.2 ± 5.6 m/s, the mass density (278 K, 1000 kPa) was 752.64 ± 1.2 kg/m3 and the speed of sound (278 K, 20000 kPa) was 1455.4 ± 6 m/s. For the same compound, the mass density (278 K, 20000 kPa) was 764.19 ± 1.3 kg/m3, the speed of sound (278 K, 40000 kPa) was 1547.8 ± 6.3 m/s and the mass density (278 K, 40000 kPa) was 775.36 ± 1.4 kg/m3. It also gave a speed of sound (278 K, 60000 kPa) of 1629.3 ± 6.6 m/s, a mass density (278 K, 60000 kPa) of 785.14 ± 1.4 kg/m3 and a speed of sound (278 K, 80000 kPa) of 1702.6 ± 6.9 m/s. The speed of sound (278 K, 100000 kPa) was 1770.5 ± 7.2 m/s, the speed of sound (288 K, 1000 kPa) was 1315 ± 5.4 m/s and the mass density (288 K, 1000 kPa) was 745.18 ± 1.2 kg/m3. For the same compound, the speed of sound (288 K, 20000 kPa) was 1419.1 ± 5.8 m/s, the mass density (288 K, 20000 kPa) was 757.29 ± 1.3 kg/m3 and the speed of sound (288 K, 40000 kPa) was 1514.4 ± 6.2 m/s. The mass density (288 K, 40000 kPa) was 768.82 ± 1.4 kg/m3, the speed of sound (288 K, 60000 kPa) was 1598 ± 6.5 m/s and the mass density (288 K, 60000 kPa) was 778.9 ± 1.4 kg/m3. It also gave a speed of sound (288 K, 80000 kPa) of 1673 ± 6.8 m/s, a speed of sound (288 K, 100000 kPa) of 1742.4 ± 7.1 m/s and a speed of sound (298 K, 1000 kPa) of 1275.2 ± 5.2 m/s. For the same compound, the mass density (298 K, 1000 kPa) was 737.58 ± 1.2 kg/m3, the speed of sound (298 K, 20000 kPa) was 1383.2 ± 5.7 m/s and the mass density (298 K, 20000 kPa) was 750.5 ± 1.3 kg/m3. The speed of sound (298 K, 40000 kPa) was 1481.3 ± 6.1 m/s, the mass density (298 K, 40000 kPa) was 762.53 ± 1.3 kg/m3 and the speed of sound (298 K, 60000 kPa) was 1566.9 ± 6.4 m/s. For the same compound, the mass density (298 K, 60000 kPa) was 773.01 ± 1.4 kg/m3, the speed of sound (298 K, 80000 kPa) was 1643.4 ± 6.7 m/s and the speed of sound (298 K, 100000 kPa) was 1714.4 ± 7 m/s. For the same compound, the speed of sound (308 K, 1000 kPa) was 1236.3 ± 5.1 m/s, the mass density (308 K, 1000 kPa) was 729.86 ± 1.2 kg/m3 and the speed of sound (308 K, 20000 kPa) was 1348.6 ± 5.5 m/s. For the same compound, the mass density (308 K, 20000 kPa) was 743.8 ± 1.3 kg/m3, the speed of sound (308 K, 40000 kPa) was 1449.8 ± 5.9 m/s and the mass density (308 K, 40000 kPa) was 756.47 ± 1.3 kg/m3. The speed of sound (308 K, 60000 kPa) was 1537.3 ± 6.3 m/s, the mass density (308 K, 60000 kPa) was 767.47 ± 1.4 kg/m3 and the speed of sound (308 K, 80000 kPa) was 1615.1 ± 6.6 m/s. It also gave a speed of sound (308 K, 100000 kPa) of 1687.2 ± 6.9 m/s, a speed of sound (318 K, 1000 kPa) of 1197.9 ± 4.9 m/s and a mass density (318 K, 1000 kPa) of 722.02 ± 1.2 kg/m3. It also gave a speed of sound (318 K, 20000 kPa) of 1314.1 ± 5.4 m/s, a mass density (318 K, 20000 kPa) of 737.19 ± 1.2 kg/m3 and a speed of sound (318 K, 40000 kPa) of 1418.4 ± 5.8 m/s. It also gave a mass density (318 K, 40000 kPa) of 750.63 ± 1.3 kg/m3, a speed of sound (318 K, 60000 kPa) of 1508.1 ± 6.2 m/s and a mass density (318 K, 60000 kPa) of 762.26 ± 1.4 kg/m3. For the same compound, the speed of sound (318 K, 80000 kPa) was 1587.7 ± 6.5 m/s and the speed of sound (318 K, 100000 kPa) was 1661.4 ± 6.8 m/s.

— the NIST ThermoML archive (doi:10.1016/j.jct.2012.10.025)
